From US10118947B2, “Modulation of structured polypeptide specificity” (BICYCLE THERAPEUTICS LIMITED, priority 2013, dated 2018)
Where two headings read alike, the source gives them in different places. Blank lines part the entries; values can stand above or below the molecule they belong to. Numbered stars: 1 amine (or outer) side, 2 acyl side, 3 side chain; on linkers, the order of the positions; unused ones are H or OH. Bridge positions count the residues as written; N and C are the ends. Square brackets hold non-standard residues; d marks the D form. Peptide text beside a SMILES is read from it. Gly(N-CH2CH2-imidazol-4-yl) = O=C(O)CNCCc1c[nH]cn1; Dip = N[C@H](C(=O)O)C(c1ccccc1)c1ccccc1; 1Nal = N[C@@H](Cc1cccc2ccccc12)C(=O)O; 2Nal = N[C@@H](Cc1ccc2ccccc2c1)C(=O)O; TBMB = c1c(C[*:1])cc(C[*:3])cc1C[*:2]; 3Pal = N[C@@H](Cc1cccnc1)C(=O)O; 2Thi = N[C@@H](Cc1cccs1)C(=O)O; β3hQ = NC(=O)CC[C@H](N)CC(=O)O; Phg = N[C@H](C(=O)O)c1ccccc1; Tle = CC(C)(C)[C@H](N)C(=O)O

Assays:
[1] = Plasma stability profiling Method #1 (MALDI-TOF, 35% plasma), rat plasma; type: in vitro ADME; conditions: Table 12; method #1
Method: A rapid plasma stability profiling assay was developed that employed mass spectrometric detection (MALDI-TOF, Voyager DE, Applied Biosystems) of the parent mass, until the time when the parent peptide mass was no longer observable. Specifically, 200 uM of peptide was incubated in the presence of 35% rat or human plasma (Sera labs, using citrate as anticoagulant) at 37 deg C., which was supplemented with 1×PBS (derived from a 10×PBS Stock, Sigma). At various time points (i.e. t=0, 3, 24 hrs, henceafter daily up to 10 days), 2 uL of sample was added to 18 uL of 30 mM ammonium bicarbonate in a 1:1 mixture of acetonitrile:H2O. Samples were frozen at −80 deg C. until the time of analysis. For mass spectrometric analysis that determines the approximate detection window of the peptide, the acetonitrile:H2O-diluted sample of a given time point was spotted directly (0.7 uL) onto the MALDI plate. Matrix (alpha-cyanocinnamic acid, Sigma, prepared as a saturated solution in 1:1 acetonitrile:water containing 0.1% trifluoroacetic acid) was layered over the sample (1 uL). At a similar laser intensity setting on the MALDI TOF, the time could then be determined until parent peptide was no longer detectable. It should be noted that this is a qualitative assay serves to detect relative changes in plasma stability.

human plasma Kallikrein = target: T1, human plasma Kallikrein (Homo sapiens, UniProt P03952); assay: Functional enzyme inhibition assay with fluorogenic substrate Z-PheArg-AMC, human plasma Kallikrein; type: biochemical
T1 construct: purchased Stratech, UK
Method: Functional enzyme assays were conducted in 10 mM Tris HCl, 150 mM NaCl, 10 mM MgCl2, 1 mM CaCl2) and 1 mg/mL BSA (all Sigma UK) pH7.4 at 25° C. in solid black 96 well plates. Briefly 26.5 pM human plasma Kallikrein (purchased from Stratech, UK) or 500 pM rat plasma Kallikrein (expressed and purified in house) were incubated in the absence or presence of increasing concentrations of test peptide for 15 minutes before addition of the fluorogenic substrate Z-PheArg-AMC (Enzo Lifesciences UK) to a final assay concentration of 100 μM in 4% DMSO. Release of AMC was measured using a Pherastar FS (BMG Labtech), excitation 360 nm, emission 460 nm. The rate of the linear phase of the reaction, typically 5 to 45 minutes, was calculated in MARS data analysis software (BMG labtech). The rate was then used to calculate the IC50 and Ki in Prism (GraphPad). A four parameter inhibition non-linear regression equation was used to calculate the IC50.
Peptides were dissolved as the TFA-salts in their powder form, and stock solutions were usually prepared in water. All solutions were centrifuged and filtered ([…] syringe filters) prior absorption measurement at 280 nm. […] For peptides containing non-natural amino acids with suspected chromophoric properties (i.e. NorHar, 4PhenylPro, 3Pal, 4Pal, Tic, 4GuanPhe, 4,4-BPAI, 3,3-DPA, 1NAI, 2NAI, 4BenzylPro, Ind) concentrations were determined by weighing the powder and dissolving the peptide in a defined quantity of water.

[2] = Table 24b, residue 7 modifications, read-out: Ki
[3] = Table 24b, ratio of Ki to wild type
[4] = Table 24c, ratio of Ki to wild type
[5] = Table 24c, residue 8 modifications, read-out: Ki
[6] = Table 24a, residue 6 modification in the context of Ac-(06-34-18), read-out: Ki (nM) Ac-(06-34-18)

T1 sequence (P03952 20-638): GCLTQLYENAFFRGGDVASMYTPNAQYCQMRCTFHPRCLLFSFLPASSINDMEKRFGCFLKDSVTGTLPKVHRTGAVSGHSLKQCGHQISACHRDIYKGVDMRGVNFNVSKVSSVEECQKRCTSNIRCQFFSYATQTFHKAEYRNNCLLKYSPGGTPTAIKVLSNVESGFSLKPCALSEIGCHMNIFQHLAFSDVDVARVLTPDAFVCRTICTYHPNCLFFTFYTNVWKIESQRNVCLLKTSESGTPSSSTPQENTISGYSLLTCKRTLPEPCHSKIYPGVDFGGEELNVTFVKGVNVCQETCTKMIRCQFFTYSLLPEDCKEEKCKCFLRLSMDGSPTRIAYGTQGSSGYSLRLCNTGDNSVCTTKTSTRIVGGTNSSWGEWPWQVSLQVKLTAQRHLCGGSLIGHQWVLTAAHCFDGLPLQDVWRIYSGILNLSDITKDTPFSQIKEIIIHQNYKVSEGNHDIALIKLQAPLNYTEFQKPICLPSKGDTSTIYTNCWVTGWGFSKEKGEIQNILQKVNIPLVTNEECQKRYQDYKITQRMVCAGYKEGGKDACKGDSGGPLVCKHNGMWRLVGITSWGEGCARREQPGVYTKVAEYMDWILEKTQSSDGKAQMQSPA

- Observable in rat plasma, for days [1]: 2 days
Compound: CC(=O)N[C@H]1CSCc2cc3cc(c2)CSC[C@H](NC(=O)[C@H](CCCNC(=N)N)NC(=O)[C@H](C)NC(=O)[C@@H]2CCCN2C(=O)[C@H](Cc2cccc4ccccc24)NC(=O)[C@H](CO)NC1=O)C(=O)N[C@@H](CC(C)C)C(=O)N[C@@H](Cc1c[nH]cn1)C(=O)N[C@@H](CCC(N)=O)C(=O)N[C@@H](CC(=O)O)C(=O)N[C@@H](CC(C)C)C(=O)N[C@H](C(N)=O)CSC3 [Ac-(06-34-18) 1NAL2] (Ac-CS[1Nal]PARCLHQDLC-NH2; linker 1-7-13 via TBMB)

- Observable in rat plasma, for days [1]: 2 days
Compound: CC(=O)N[C@H]1CSCc2cc3cc(c2)CSC[C@H](NC(=O)[C@H](CCCNC(=N)N)NC(=O)[C@H](C)NC(=O)[C@@H]2CCCN2C(=O)[C@H](Cc2ccc4ccccc4c2)NC(=O)[C@H](CO)NC1=O)C(=O)N[C@@H](CC(C)C)C(=O)N[C@@H](Cc1c[nH]cn1)C(=O)N[C@@H](CCC(N)=O)C(=O)N[C@@H](CC(=O)O)C(=O)N[C@@H](CC(C)C)C(=O)N[C@H](C(N)=O)CSC3 [Ac-(06-34-18) 2NAL2] (Ac-CS[2Nal]PARCLHQDLC-NH2; linker 1-7-13 via TBMB)

- Observable in rat plasma, for days [1]: 2 days
Compound: CC(=O)N[C@H]1CSCc2cc3cc(c2)CSC[C@H](NC(=O)[C@H](CCCNC(=N)N)NC(=O)[C@H](C)NC(=O)[C@@H]2CCCN2C(=O)[C@H](C(c2ccccc2)c2ccccc2)NC(=O)[C@H](CO)NC1=O)C(=O)N[C@@H](CC(C)C)C(=O)N[C@@H](Cc1c[nH]cn1)C(=O)N[C@@H](CCC(N)=O)C(=O)N[C@@H](CC(=O)O)C(=O)N[C@@H](CC(C)C)C(=O)N[C@H](C(N)=O)CSC3 [Ac-(06-34-18) 3,3-DPA2] (Ac-CS[Dip]PARCLHQDLC-NH2; linker 1-7-13 via TBMB)

- Observable in rat plasma, for days [1]: 2 days
Compound: CC(=O)N[C@H]1CSCc2cc3cc(c2)CSC[C@H](NC(=O)[C@H](CCCNC(=N)N)NC(=O)[C@H](C)NC(=O)[C@@H]2CCCN2C(=O)[C@H](Cc2cccnc2)NC(=O)[C@H](CO)NC1=O)C(=O)N[C@@H](CC(C)C)C(=O)N[C@@H](Cc1c[nH]cn1)C(=O)N[C@@H](CCC(N)=O)C(=O)N[C@@H](CC(=O)O)C(=O)N[C@@H](CC(C)C)C(=O)N[C@H](C(N)=O)CSC3 [Ac-(06-34-18) 3Pal2] (Ac-CS[3Pal]PARCLHQDLC-NH2; linker 1-7-13 via TBMB)

- F (Kivar/KiWT) (human plasma Kallikrein; Table 25b, fold change of Ki of variant compared to WT): 519
- Ki (human plasma Kallikrein; Table 25b, peptide backbone modifications in Loop2, human plasma kallikrein, read-out: Ki): 218 nM
Compound: CC(=O)N[C@H]1CSCc2cc3cc(c2)CSC[C@H](NC(=O)[C@H](CCCNC(=N)N)NC(=O)[C@H](Cc2ccc(O)cc2)NC(=O)[C@@H]2CCCN2C(=O)[C@H](Cc2ccccc2)NC(=O)[C@H](CO)NC1=O)C(=O)N[C@@H](CC(C)C)C(=O)N(CCc1c[nH]cn1)CC(=O)N[C@@H](CCC(N)=O)C(=O)N[C@@H](CC(=O)O)C(=O)N[C@@H](CC(C)C)C(=O)N[C@H](C(N)=O)CSC3 [Ac-(06-34-18) Phe2 Tyr4 N-His7] (Ac-CSFPYRCL[Gly(N-CH2CH2-imidazol-4-yl)]QDLC-NH2; linker 1-7-13 via TBMB)

- Ki (human plasma Kallikrein; Table 24a, residue 6 modification in the context of Ac-(06-34-18) Phe2 Tyr4, read-out: Ki (nM) Ac-(06-34-18) Phe2 Tyr4): 14.9 nM
Compound: CC(=O)N[C@H]1CSCc2cc3cc(c2)CSC[C@H](NC(=O)[C@H](CCCNC(=N)N)NC(=O)[C@H](Cc2ccc(O)cc2)NC(=O)[C@@H]2CCCN2C(=O)[C@H](Cc2ccccc2)NC(=O)[C@H](CO)NC1=O)C(=O)N[C@@H](Cc1ccccc1)C(=O)N[C@@H](Cc1c[nH]cn1)C(=O)N[C@@H](CCC(N)=O)C(=O)N[C@@H](CC(=O)O)C(=O)N[C@@H](CC(C)C)C(=O)N[C@H](C(N)=O)CSC3 [Ac-(06-34-18) Phe2 Tyr4 Phe6] (Ac-CSFPYRCFHQDLC-NH2; linker 1-7-13 via TBMB)

- Ki (human plasma Kallikrein; [2]): 43 nM
- F (Kivar/KiWT) (human plasma Kallikrein; [3]): 102
Compound: CC(=O)N[C@H]1CSCc2cc3cc(c2)CSC[C@H](NC(=O)[C@H](CCCNC(=N)N)NC(=O)[C@H](Cc2ccc(O)cc2)NC(=O)[C@@H]2CCCN2C(=O)[C@H](Cc2ccccc2)NC(=O)[C@H](CO)NC1=O)C(=O)N[C@@H](CC(C)C)C(=O)N[C@@H](Cc1ccccc1)C(=O)N[C@@H](CCC(N)=O)C(=O)N[C@@H](CC(=O)O)C(=O)N[C@@H](CC(C)C)C(=O)N[C@H](C(N)=O)CSC3 [Ac-(06-34-18) Phe2 Tyr4 Phe7] (Ac-CSFPYRCLFQDLC-NH2; linker 1-7-13 via TBMB)

- Ki (human plasma Kallikrein; [2]): 34 nM
- F (Kivar/KiWT) (human plasma Kallikrein; [3]): 80
Compound: CC(=O)N[C@H]1CSCc2cc3cc(c2)CSC[C@H](NC(=O)[C@H](CCCNC(=N)N)NC(=O)[C@H](Cc2ccc(O)cc2)NC(=O)[C@@H]2CCCN2C(=O)[C@H](Cc2ccccc2)NC(=O)[C@H](CO)NC1=O)C(=O)N[C@@H](CC(C)C)C(=O)N[C@@H](Cc1cccs1)C(=O)N[C@@H](CCC(N)=O)C(=O)N[C@@H](CC(=O)O)C(=O)N[C@@H](CC(C)C)C(=O)N[C@H](C(N)=O)CSC3 [Ac-(06-34-18) Phe2 Tyr4 Thi7] (Ac-CSFPYRCL[2Thi]QDLC-NH2; linker 1-7-13 via TBMB)

- F (Kivar/KiWT) (human plasma Kallikrein; [4]): 193
Compound: CC(=O)N[C@H]1CSCc2cc3cc(c2)CSC[C@H](NC(=O)[C@H](CCCNC(=N)N)NC(=O)[C@H](Cc2ccc(O)cc2)NC(=O)[C@@H]2CCCN2C(=O)[C@H](Cc2ccccc2)NC(=O)[C@H](CO)NC1=O)C(=O)N[C@@H](CC(C)C)C(=O)N[C@@H]([C@@H](C)O)C(=O)N[C@@H]([C@@H](C)O)C(=O)N[C@@H](CCC(=O)O)C(=O)N[C@@H](CC(C)C)C(=O)N[C@H](C(N)=O)CSC3 [Ac-(06-34-18) Phe2 Tyr4 Thr7 Thr8 Glu9] (Ac-CSFPYRCLTTELC-NH2; linker 1-7-13 via TBMB)

- Ki (human plasma Kallikrein; [5]): 4.23 nM
- F (Kivar/KiWT) (human plasma Kallikrein; [4]): 10
Compound: CC(=O)N[C@H]1CSCc2cc3cc(c2)CSC[C@H](NC(=O)[C@H](CCCNC(=N)N)NC(=O)[C@H](Cc2ccc(O)cc2)NC(=O)[C@@H]2CCCN2C(=O)[C@H](Cc2ccccc2)NC(=O)[C@H](CO)NC1=O)C(=O)N[C@@H](CC(C)C)C(=O)N[C@@H](Cc1c[nH]cn1)C(=O)N[C@@H]([C@@H](C)O)C(=O)N[C@@H](CC(=O)O)C(=O)N[C@@H](CC(C)C)C(=O)N[C@H](C(N)=O)CSC3 [Ac-(06-34-18) Phe2 Tyr4 Thr8] (Ac-CSFPYRCLHTDLC-NH2; linker 1-7-13 via TBMB)

- Ki (human plasma Kallikrein; [5]): 16.8 nM
- F (Kivar/KiWT) (human plasma Kallikrein; [4]): 40
Compound: CC(=O)N[C@H]1CSCc2cc3cc(c2)CSC[C@H](NC(=O)[C@H](CCCNC(=N)N)NC(=O)[C@H](Cc2ccc(O)cc2)NC(=O)[C@@H]2CCCN2C(=O)[C@H](Cc2ccccc2)NC(=O)[C@H](CO)NC1=O)C(=O)N[C@@H](CC(C)C)C(=O)N[C@@H](Cc1c[nH]cn1)C(=O)N[C@@H](CCC(N)=O)CC(=O)N[C@@H](CC(=O)O)C(=O)N[C@@H](CC(C)C)C(=O)N[C@H](C(N)=O)CSC3 [Ac-(06-34-18) Phe2 Tyr4 bHGln8] (Ac-CSFPYRCLH[β3hQ]DLC-NH2; linker 1-7-13 via TBMB)

- Ki (human plasma Kallikrein; [6]): 0.18 nM
Compound: CC(=O)N[C@H]1CSCc2cc3cc(c2)CSC[C@H](NC(=O)[C@H](CCCNC(=N)N)NC(=O)[C@H](C)NC(=O)[C@@H]2CCCN2C(=O)[C@H](Cc2c[nH]c4ccccc24)NC(=O)[C@H](CO)NC1=O)C(=O)N[C@@H](c1ccccc1)C(=O)N[C@@H](Cc1c[nH]cn1)C(=O)N[C@@H](CCC(N)=O)C(=O)N[C@@H](CC(=O)O)C(=O)N[C@@H](CC(C)C)C(=O)N[C@H](C(N)=O)CSC3 [Ac-(06-34-18) Phg6] (Ac-CSWPARC[Phg]HQDLC-NH2; linker 1-7-13 via TBMB)

- Ki (human plasma Kallikrein; [6]): 0.49 nM
Compound: CC(=O)N[C@H]1CSCc2cc3cc(c2)CSC[C@H](NC(=O)[C@H](CCCNC(=N)N)NC(=O)[C@H](C)NC(=O)[C@@H]2CCCN2C(=O)[C@H](Cc2c[nH]c4ccccc24)NC(=O)[C@H](CO)NC1=O)C(=O)N[C@@H](C(C)(C)C)C(=O)N[C@@H](Cc1c[nH]cn1)C(=O)N[C@@H](CCC(N)=O)C(=O)N[C@@H](CC(=O)O)C(=O)N[C@@H](CC(C)C)C(=O)N[C@H](C(N)=O)CSC3 [Ac-(06-34-18) tBuGly6] (Ac-CSWPARC[Tle]HQDLC-NH2; linker 1-7-13 via TBMB)
